The text below walks through data of patent EP4186500A1, “MEK INHIBITORS FOR THE PREVENTION AND TREATMENT OF LONG COVID SYNDROME” (Atriva Therapeutics GmbH, priority 2021, dated 2023).

The experiment has as its system VSV ΔG/GFP-Luc+SΔ21. It counts as cell-based.

For `O=C(NOCC1CC1)c1ccc(F)c(F)c1Nc1ccc(I)cc1Cl` [CI-1040, reference compound], the “internalization of the VSV pseudotype virus (GFP-positive cells)” value was “reduction in the internalization of the VSV pseudotype virus”.
